Consider 14 molecules from patent US9642831B2, “Substituted chromanes and method of use” (AbbVie S.á.r.l., priority 2014, dated 2017).

The target of data set [1] is T1, F508delCFTR (Homo sapiens, UniProt P13569, DEL508-508). Nature of the data set: Transepithelial Clamp Circuit (TECC-24) conductance assay on primary human bronchial epithelial cells (hBE-TECC). Format: cell-based. Also on record: cells isolated from CF patients with the homozygous mutation; endogenous in cells; host or cells: primary human bronchial epithelial (hBE) cells from F508del/F508del CF patients. Particulars: for EC50: primary hBE cells from F508del/F508delCFTR patients, corrector 18-24 hours at 37° C., equivalent short circuit current (Ieq), with control potentiator 1 μM; for Emax: relative to positive control (3 μM Example 1 coupled with control potentiator = 100%), primary hBE F508del/F508del cells, read-out: Maximum % activity (%). The text has this: Transepithelial Clamp Circuit on Human Bronchial Epithelial Cells Conductance Assay:
A cell based assay using the primary human bronchial epithelial cells (hBE) was used as a secondary assay to test novel F508delCFTR correctors for their activity on primary hBE cells with F508del/F508del CFTR mutation. The assay used a TECC-24 (Transepithelial Clamp Circuit for 24 wells) instrument that measures the functionality of the mutated channel by measuring the equivalent short circuit current (Ieq) generated by the polarized epithelial cells. The instrument works by measuring the transepithelial potential difference (Vt) and transepithelial resistance (Rt) in an open circuit format, and the Ieq is calculated by using Ohms law (Ieq=Vt/Rt). The assay was run in a 24-well format and all 24-wells were measured at the same time point giving a higher throughput for this assay.
Primary human bronchial epithelial (hBE) cells from F508del/F508delCFTR patients were expanded from 1×10^6 to 250×10^6 cells (Neuberger T, Burton B, Clark H and VanGoor F; Cystic Fibrosis, Methods in Mole Biol 741; eds. Amaral M D and Kunzelmann K, 2011). For this purpose, cells isolated from CF patients with the homozygous mutation were seeded onto 24 well Corning (Cat #3378) filter plates that were coated with 3T3 conditioned media and grown at an air-liquid interface for 35 days using an Ultroser® G supplemented differentiation media. Apical surface mucus was removed 72 hours before the experiment using 3 mM dithiothreitol (DTT) in phosphate buffered saline (PBS). The apical surface was washed again 24 hours before the experiment using PBS. The cells were incubated with the desired dose response of the corrector compounds 18-24 hours at 37° C., 5% CO2. The corrector compounds are only added on the basolateral side of the epithelial cells.
On the day of measuring the corrector activity on the TECC, the cells were switched into a bicarbonate and serum free F-12 Coon's medium and allowed to equilibrate for 90 minutes in a CO2 free incubator. At the time of measurement, the apical and basolateral sides of the filter were bathed with the F-12 Coon's modification media (with 20 mM 4-(2-hydroxyethyl)-1-piperazineethanesulfonic acid (HEPES), pH 7.4 (using 1 M tris(hydroxymethyl)aminormethane (Tris)), and the measurements were made at 36.5° C. Transepithelial voltage (Vt) and transepithelial resistance (Rt) were measured using a 24 channel transepithelial current clamp (TECC-24). Current responses to the sequential addition of benzamil (apical 6 μM addition; for inhibiting epithelial ENaC channel), forskolin (apical and basolateral 10 μM addition; for activating the CFTR channel), control potentiator (N-(3-carbamoyl-5,5,7,7-tetramethyl-4,7-dihydro-5H-thieno[2,3-c]pyran-2-yl)-1H-pyrazole-5-carboxamide; apical and basolateral 1 μM addition; for potentiating the CFTR channel) and bumetanide (basolateral 20 μM addition; for inhibiting the Na:2Cl:K co-transporter, an indirect measure of inhibiting the Cl-secretion driven by CFTR channel) were measured.
All plates contained negative controls (dimethyl sulfoxide, DMSO) which coupled with the control potentiator (N-(3-carbamoyl-5,5,7,7-tetramethyl-4,7-dihydro-5H-thieno[2,3-c]pyran-2-yl)-1H-pyrazole-5-carboxamide) sets the null response and positive controls (3 μM of 3-[(2R,4R)-4-({[1-(2,2-difluoro-1,3-benzodioxol-5-yl)cyclopropyl]carbonyl}amino)-7-methoxy-3,4-dihydro-2H-chromen-2-yl]benzoic acid) coupled with the control potentiator sets the 100% response to measure the correction of the mutated CFTR channel. The maximum percent activity is reported relative to the positive control value.
The % activity measured at each of the 6 test concentrations of the test compound was normalized to the on-plate positive control using the following formula: % activity=[(test compound response−DMSO response)/(positive control response−DMSO response)]*100 […]

Data set [2] deals with T1, F508delCFTR. Nature of the data set: Cell Surface Expression-Horse Radish Peroxidase (CSE-HRP) assay. Format: cell-based. Also on record: expressed in transfected cells; host or cells: CFBE41o- human lung derived epithelial cell line, doxycycline-inducible. Conditions: CFBE4lo-F508delCFTR-HRP cells; for EC50: 18-24 hours at 33° C., 8-point curve, highest concentration 20 μM, luminescence readout. An outline of the steps:
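Following 18-24 h compound exposure at 33° C. Expression was doxycycline-induced beforehand. % activity versus DMSO and a 3 μM corrector control gave maximum activity and EC50 from a variable-Hill sigmoidal fit.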

For data set [3], the system named is CYP3A4. Kind of data set: CYP3A4 induction in primary human hepatocytes (mRNA, RT-PCR). Conditions: test compounds 10 μM, 48 hours, % of response of positive control (Rifampin 10 μM).
Description: Cryopreserved primary human hepatocytes were thawed and cultured overnight prior to treatment. […] Following the 48 hour treatment, hepatocytes were harvested for RNA isolation and reverse transcription, followed by CYP3A4 mRNA quantitation using RT-PCR (real time reverse transcript polymerase chain reaction).
Fold Induction=Fold of Treated/Fold of Vehicle Control % positive control=(Fold Induction of Treated−1)/(Fold Induction of Prototypical Inducer−1)
The mark [4] stands for this setting: maximum % activity at any tested concentration, normalized to on-plate positive control (3 μM Example 1).

T1 sequence (P13569 with tags, fused parts or gaps DEL508-508): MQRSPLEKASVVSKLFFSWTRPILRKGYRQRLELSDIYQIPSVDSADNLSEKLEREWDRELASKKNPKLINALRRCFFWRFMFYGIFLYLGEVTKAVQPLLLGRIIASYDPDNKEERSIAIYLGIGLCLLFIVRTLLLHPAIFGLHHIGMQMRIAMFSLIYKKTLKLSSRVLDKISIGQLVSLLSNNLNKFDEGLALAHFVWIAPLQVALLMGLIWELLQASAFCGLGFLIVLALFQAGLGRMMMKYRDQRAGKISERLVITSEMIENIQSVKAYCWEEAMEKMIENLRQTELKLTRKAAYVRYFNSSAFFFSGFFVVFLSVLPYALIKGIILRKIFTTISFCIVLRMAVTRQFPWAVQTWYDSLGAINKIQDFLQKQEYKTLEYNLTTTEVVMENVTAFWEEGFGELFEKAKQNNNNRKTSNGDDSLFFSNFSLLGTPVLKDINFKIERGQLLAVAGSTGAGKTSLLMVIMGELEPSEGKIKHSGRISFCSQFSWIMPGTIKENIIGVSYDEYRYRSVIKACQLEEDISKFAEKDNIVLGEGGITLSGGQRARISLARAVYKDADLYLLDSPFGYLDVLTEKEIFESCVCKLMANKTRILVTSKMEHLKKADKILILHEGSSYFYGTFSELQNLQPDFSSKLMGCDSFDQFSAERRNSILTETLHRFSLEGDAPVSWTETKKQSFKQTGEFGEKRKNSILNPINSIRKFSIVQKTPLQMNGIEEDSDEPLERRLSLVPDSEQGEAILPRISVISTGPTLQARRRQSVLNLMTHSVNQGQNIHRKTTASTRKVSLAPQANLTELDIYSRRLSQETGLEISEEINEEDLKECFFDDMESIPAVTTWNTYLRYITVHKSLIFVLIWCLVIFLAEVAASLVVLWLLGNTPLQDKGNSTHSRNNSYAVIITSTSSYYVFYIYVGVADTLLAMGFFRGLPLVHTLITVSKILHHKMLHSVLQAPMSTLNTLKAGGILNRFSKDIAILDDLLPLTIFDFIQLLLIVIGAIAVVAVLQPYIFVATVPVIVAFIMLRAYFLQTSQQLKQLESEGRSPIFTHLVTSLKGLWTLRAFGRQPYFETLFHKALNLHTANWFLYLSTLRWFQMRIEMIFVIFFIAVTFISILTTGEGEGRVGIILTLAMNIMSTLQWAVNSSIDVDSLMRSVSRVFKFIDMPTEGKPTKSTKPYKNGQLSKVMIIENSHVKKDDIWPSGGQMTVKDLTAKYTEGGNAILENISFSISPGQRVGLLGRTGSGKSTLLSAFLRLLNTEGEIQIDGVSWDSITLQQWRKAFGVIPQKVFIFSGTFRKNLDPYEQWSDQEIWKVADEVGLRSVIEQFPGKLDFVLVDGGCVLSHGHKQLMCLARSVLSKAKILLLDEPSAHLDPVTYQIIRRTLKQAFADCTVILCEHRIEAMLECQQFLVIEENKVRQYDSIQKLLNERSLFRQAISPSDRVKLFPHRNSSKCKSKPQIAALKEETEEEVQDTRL

Consider `COc1ccc2c(c1)O[C@@H](C13CC(C(=O)O)(C1)C3)C[C@H]2NC(=O)C1(c2ccc3c(c2)OC(F)(F)O3)CC1` (racemic) [Example 148, rac-3-[(2R,4R)-4-({[1-(2,2-difluoro-1,3-benzodioxol-5-yl)cyclopropyl]carbonyl}amino)-7-methoxy-3,4-dihydro-2H-chromen-2-yl]bicyclo[1.1.1]pentane-1-carboxylic acid], for which the EC50 was 1100 nM in data set [1] and 2120 nM in data set [2]. In addition, the Emax in data set [1] is 44%; in data set [2] (setting [4]) it was 77%.

Regarding `O=C(O)C1CCCC([C@H]2C[C@@H](NC(=O)C3(c4ccc5c(c4)OC(F)(F)O5)CC3)c3ccc(OC(F)F)cc3O2)C1` (stereo partly drawn) [Example 26, 3-[(2R,4R)-4-({[1-(2,2-difluoro-1,3-benzodioxol-5-yl)cyclopropyl]carbonyl}amino)-7-(difluoromethoxy)-3,4-dihydro-2H-chromen-2-yl]cyclohexanecarboxylic acid], the EC50 in data set [1] was found to be 110 nM; in data set [2], 340 nM. Moreover, the Emax in data set [1] amounted to 88%; in data set [2] (setting [4]), 93%.

In the case of `O=C(O)c1cccc([C@H]2C[C@@H](NC(=O)C3(c4ccc5c(c4)OC(F)(F)O5)CC3)c3ccc(OC(F)F)cc3O2)c1` [Example 27, 3-[(2R,4R)-4-({[1-(2,2-difluoro-1,3-benzodioxol-5-yl)cyclopropyl]carbonyl}amino)-7-(difluoromethoxy)-3,4-dihydro-2H-chromen-2-yl]benzoic acid], the EC50 in data set [1] was found to be 75 nM; in data set [2], 120 nM. Also, the Emax in data set [1] came to 117%; in data set [2] (setting [4]), 113%.

As to `O=C(O)c1cccc([C@H]2C[C@@H](NC(=O)C3(c4ccc5c(c4)OC(F)(F)O5)CC3)c3ccc(F)cc3O2)c1` [Example 38, 3-[(2R,4R)-4-({[1-(2,2-difluoro-1,3-benzodioxol-5-yl)cyclopropyl]carbonyl}amino)-7-fluoro-3,4-dihydro-2H-chromen-2-yl]benzoic acid], in data set [3], the “CYP3A4 Hepatocytes mRNA % of positive control” value was 40.2%.

Consider `O=C(O)c1cccc([C@H]2C[C@@H](NC(=O)C3(c4ccc5c(c4)OC(F)(F)O5)CC3)c3cccc(F)c3O2)c1` [Example 119, 3-[(2R,4R)-4-({[1-(2,2-difluoro-1,3-benzodioxol-5-yl)cyclopropyl]carbonyl}amino)-8-fluoro-3,4-dihydro-2H-chromen-2-yl]benzoic acid], for which the EC50 in data set [1] came to 450 nM; in data set [2], 880 nM. In addition, the figures for the Emax in data set [1] and in data set [2] (setting [4]) were 80% and 71%, respectively.

As to `O=C(O)c1ccc([C@H]2C[C@@H](NC(=O)C3(c4ccc5c(c4)OC(F)(F)O5)CC3)c3ccccc3O2)cc1` [Example 121, 4-[(2R,4R)-4-({[1-(2,2-difluoro-1,3-benzodioxol-5-yl)cyclopropyl]carbonyl}amino)-3,4-dihydro-2H-chromen-2-yl]benzoic acid], the EC50 was 38 nM in data set [1] and 130 nM in data set [2]. Also, the Emax was 87% in data set [1] and 102% in data set [2] (setting [4]).

Molecule `COC(=O)c1ccc([C@H]2C[C@@H](NC(=O)C3(c4ccc5c(c4)OC(F)(F)O5)CC3)c3ccc(OC)cc3O2)c(F)c1` [Example 138, methyl 4-[(2R,4R)-4-({[1-(2,2-difluoro-1,3-benzodioxol-5-yl)cyclopropyl]carbonyl}amino)-7-methoxy-3,4-dihydro-2H-chromen-2-yl]-3-fluorobenzoate] registered an EC50 in data set [2] of 50 nM. Besides, in data set [2] (setting [4]), the Emax stood at 119%.

Consider `COc1ccc2c(c1)O[C@@H](c1ccc(C(=O)O)c(F)c1)C[C@H]2NC(=O)C1(c2ccc3c(c2)OC(F)(F)O3)CC1` [Example 139, 4-[(2R,4R)-4-({[1-(2,2-difluoro-1,3-benzodioxol-5-yl)cyclopropyl]carbonyl}amino)-7-methoxy-3,4-dihydro-2H-chromen-2-yl]-2-fluorobenzoic acid], for which the EC50 in data set [1] was 31.3 nM; in data set [2] it was 100 nM. Also, the Emax in data set [1] turned out to be 100%; in data set [2] (setting [4]) it was 115%.

The molecule `CCOC(=O)C1CC(C2CC(NC(=O)C3(c4ccc5c(c4)OC(F)(F)O5)CC3)c3ccccc3O2)C1` (stereo not drawn) [Example 151, ethyl 3-[4-({[1-(2,2-difluoro-1,3-benzodioxol-5-yl)cyclopropyl]carbonyl}amino)-3,4-dihydro-2H-chromen-2-yl]cyclobutanecarboxylate] displayed an EC50 in data set [2] of 6120 nM. Besides, the Emax in data set [2] (setting [4]) came to 64%.

`O=C(O)C1CC(C2CC(NC(=O)C3(c4ccc5c(c4)OC(F)(F)O5)CC3)c3ccccc3O2)C1` (stereo not drawn) [Example 152, 3-[4-({[1-(2,2-difluoro-1,3-benzodioxol-5-yl)cyclopropyl]carbonyl}amino)-3,4-dihydro-2H-chromen-2-yl]cyclobutanecarboxylic acid] yielded an EC50 in data set [2] of 6350 nM. The Emax in data set [2] (setting [4]) amounted to 59%.

`O=C(O)c1ccc([C@H]2C[C@@H](NC(=O)C3(c4cc5c(cc4Br)OC(F)(F)O5)CC3)c3ccc(OC(F)F)cc3O2)cc1` [Example 202, 4-[(2R,4R)-4-({[1-(6-bromo-2,2-difluoro-1,3-benzodioxol-5-yl)cyclopropyl]carbonyl}amino)-7-(difluoromethoxy)-3,4-dihydro-2H-chromen-2-yl]benzoic acid] displayed an EC50 in data set [2] of 10 nM. This molecule also yielded an Emax in data set [2] (setting [4]) of 142%.

The molecule `COC(=O)c1ccc([C@H]2C[C@@H](NC(=O)C3(c4cc5c(cc4Br)OC(F)(F)O5)CC3)c3ccc(OC)cc3O2)cc1` [Example 202F, methyl 4-((2R,4R)-4-(1-(6-bromo-2,2-difluorobenzo[d][1,3]dioxol-5-yl)cyclopropanecarboxamido)-7-methoxychroman-2-yl)benzoate] gave an EC50 in data set [2] of 40 nM. In data set [2] (setting [4]), this molecule yielded an Emax of 131%.

Regarding `CS(=O)(=O)NC(=O)c1ccc([C@H]2C[C@@H](NC(=O)C3(c4ccc5c(c4)OC(F)(F)O5)CC3)c3ccc(OC(F)F)cc3O2)cc1` [Example 203, 4-[(2R,4R)-4-({[1-(2,2-difluoro-1,3-benzodioxol-5-yl)cyclopropyl]carbonyl}amino)-7-(difluoromethoxy)-3,4-dihydro-2H-chromen-2-yl]-N-(methylsulfonyl)benzamide], a half-maximal effect in data set [2] (EC50) was put at 690 nM. Also, in data set [2] (setting [4]), the Emax was 157%.

“N-[2-(3,4-dichlorophenyl)-3,4-dihydro-2H-chromen-4-yl]-1-(2,2-difluoro-1,3-benzodioxol-5-yl)cyclopropanecarboxamide [Example 66]” came in with an EC50 in data set [2] of 6100 nM. For the same molecule, the “Maximum % activity (%)” value in data set [2] (setting [4]) was found to be 89%.

As a reminder, the EC50 is the midpoint of the concentration-response curve.
